Assay: UV absorption (λmax, molar extinction ε, extinction value E 1%, 1 cm) of the triazine UV filters
Format: physicochemical
[1] = at λmax 320 nm, solvent not stated
[2] = second band at 224 nm, solvent not stated

Row | SMILES | E (1%, 1 cm) (at λmax, in ethanol) | ε (at λmax, in ethanol) | λmax (in ethanol) | E (1%, 1 cm) (at λmax, in dioxane) | ε (at λmax, in dioxane) | λmax (in dioxane) | further results
1 | CC1(C)CC(=O)C(=CNc2nc(NC=C3C(=O)CC(C)(C)CC3=O)nc(-c3ccccc3)n2)C(=O)C1 [Example 1] | – | – | – | – | – | – | E (=extinction value) (1%, 1 cm) [1]: 1045; ε [1]: 51000 L/mol/cm; λmax (main band, solvent not stated): 320 nm; E (1%, 1 cm) [2]: 732; ε [2]: 35700 L/mol/cm; γmax (second band, solvent not stated): 224 nm
2 | CC(=O)C(=CNc1nc(NC=C(C(C)=O)C(C)=O)nc(-c2ccccc2)n1)C(C)=O [Example 2] | 1053 | 42900 L/mol/cm | 322 nm | – | – | – | –
3 | CC1(C)OC(=O)C(=CNc2nc(NC=C3C(=O)OC(C)(C)OC3=O)nc(-c3ccccc3)n2)C(=O)O1 [Example 3] | – | – | – | 1374 | 68000 L/mol/cm | 332 nm | –
4 | CCOC(=O)/C(=C\Nc1nc(N/C=C(\C(C)=O)C(=O)OCC)nc(-c2ccccc2)n1)C(C)=O [Example 4] | 983 | 46000 L/mol/cm | 319 nm | – | – | – | –
5 | CCOC(=O)/C(=C\Nc1nc(N/C=C(\C(C)=O)C(=O)OCC)nc(N/C=C(\C(C)=O)C(=O)OCC)n1)C(C)=O [Example 5] | – | – | – | 1350 | – | 325 nm | –
6 | CC1(C)OC(=O)C(=CNc2nc(NC=C3C(=O)OC(C)(C)OC3=O)nc(NC=C3C(=O)OC(C)(C)OC3=O)n2)C(=O)O1 [Example 6] | – | – | – | 1053 | 61 956 | 326 nm | –
